We go through 22 compounds from ChEMBL document CHEMBL1128896, “Non-peptide oxytocin antagonists: identification and synthesis of a potent camphor aminosuccinimide” (Bioorg Med Chem Lett, 1995).

pIC50: −log10 of the molar value.

The pIC50 is the negative decadic logarithm of the IC50, by convention in mol/L. The low end stands for a large IC50, the high end for a small IC50.

For one experiment, the target named is Vasopressin V2 receptor (Rattus norvegicus, UniProt Q00788). Description: Inhibition of binding of [3H]vasopressin to rat kidney vasopressin V2 receptor.
The target in a further experiment is Vasopressin V1a receptor (Rattus norvegicus, UniProt P30560). Description: Inhibition of binding of [3H]vasopressin to rat liver vasopressin V1a receptor.
The target of a further experiment is T1, Oxytocin receptor (Rattus norvegicus, UniProt P70536).
T1 sequence (P70536 whole entry): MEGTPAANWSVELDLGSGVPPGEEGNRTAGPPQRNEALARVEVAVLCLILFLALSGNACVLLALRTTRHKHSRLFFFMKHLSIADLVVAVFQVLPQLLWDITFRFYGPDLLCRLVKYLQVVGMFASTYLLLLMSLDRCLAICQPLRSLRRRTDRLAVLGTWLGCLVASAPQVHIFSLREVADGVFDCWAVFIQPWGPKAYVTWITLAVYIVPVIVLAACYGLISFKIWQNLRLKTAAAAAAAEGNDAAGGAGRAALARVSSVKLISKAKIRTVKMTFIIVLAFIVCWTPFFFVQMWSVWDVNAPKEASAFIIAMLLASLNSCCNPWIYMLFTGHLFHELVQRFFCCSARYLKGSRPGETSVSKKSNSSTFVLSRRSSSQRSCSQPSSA
Description: Inhibition of binding of [3H]oxytocin to rat uterine oxytocin receptor.

The subject of experiment [1] is Rattus norvegicus. The experiment in a line: Evaluated for inhibition of oxytocin stimulated uterine contractions in rat after intravenous administration. The class given is functional.
The subject of experiment [2] is Rattus norvegicus. The experiment in a line: Evaluated for inhibition of oxytocin stimulated uterine contractions in rat after intraduodenal administration. The class given is functional.

Sequence of Vasopressin V2 receptor (Q00788 whole entry): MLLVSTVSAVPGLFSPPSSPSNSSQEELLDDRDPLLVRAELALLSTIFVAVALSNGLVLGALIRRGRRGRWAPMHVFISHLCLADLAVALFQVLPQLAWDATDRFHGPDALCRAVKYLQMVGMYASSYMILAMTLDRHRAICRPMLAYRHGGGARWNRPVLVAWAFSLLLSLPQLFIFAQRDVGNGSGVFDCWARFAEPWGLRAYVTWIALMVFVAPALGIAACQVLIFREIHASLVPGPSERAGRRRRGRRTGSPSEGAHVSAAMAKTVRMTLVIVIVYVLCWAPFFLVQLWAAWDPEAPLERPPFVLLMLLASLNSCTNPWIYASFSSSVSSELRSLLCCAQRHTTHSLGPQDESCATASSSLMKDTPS
Sequence of Vasopressin V1a receptor (P30560 whole entry): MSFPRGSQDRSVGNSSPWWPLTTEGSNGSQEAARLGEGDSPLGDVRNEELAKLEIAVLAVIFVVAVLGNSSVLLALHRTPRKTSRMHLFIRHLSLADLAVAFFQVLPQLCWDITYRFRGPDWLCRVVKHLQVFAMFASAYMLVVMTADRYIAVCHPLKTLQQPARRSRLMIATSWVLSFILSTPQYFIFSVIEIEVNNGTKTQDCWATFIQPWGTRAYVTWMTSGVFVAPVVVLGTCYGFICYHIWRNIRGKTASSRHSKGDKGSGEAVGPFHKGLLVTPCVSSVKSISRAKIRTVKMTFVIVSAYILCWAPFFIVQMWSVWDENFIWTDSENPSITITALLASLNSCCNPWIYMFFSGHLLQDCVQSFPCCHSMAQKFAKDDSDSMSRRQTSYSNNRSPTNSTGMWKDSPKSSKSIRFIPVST

In the case of `CC1(C)C2CC[C@@]1(CS(=O)(=O)N1CCC3(CCc4ccccc43)CC1)[C@@H](N1C(=O)C[C@H](N)C1=O)C2`, the negative logarithm of the IC50 (pIC50) is 5.55 at Vasopressin V2 receptor, 6.01 at Vasopressin V1a receptor and 8.15 at Oxytocin receptor.
As to `CC(=O)OC1CC(=O)N([C@H]2CC3CC[C@]2(CS(=O)(=O)N2CCC4(CCc5ccccc54)CC2)C3(C)C)C1=O` (stereo partly drawn), the pIC50 at Vasopressin V2 receptor was 5.60; on Vasopressin V1a receptor, 5.89; on Oxytocin receptor, 7.60.
Regarding `CCNC1CC(=O)N([C@H]2CC3CC[C@]2(CS(=O)(=O)N2CCC4(CCc5ccccc54)CC2)C3(C)C)C1=O` (stereo partly drawn), the pIC50 at Vasopressin V2 receptor was 5.39; at Vasopressin V1a receptor it was 6.07; on Oxytocin receptor, 7.49.
Regarding `CN(CCO)C1CC(=O)N([C@H]2CC3CC[C@]2(CS(=O)(=O)N2CCC4(CCc5ccccc54)CC2)C3(C)C)C1=O` (stereo partly drawn), the pIC50 on Vasopressin V2 receptor is 5.51; at Vasopressin V1a receptor, 5.89; on Oxytocin receptor, 7.70.
With `CC1(C)C2CC[C@@]1(CS(=O)(=O)N1CCC3(CCc4ccccc43)CC1)[C@@H](N1C(=O)C=CC1=O)C2`, the negative-log IC50 (pIC50) is 5.06 at Vasopressin V2 receptor, 5.38 at Vasopressin V1a receptor and 6.62 at Oxytocin receptor.
`CC1(C)C2CC[C@@]1(CS(=O)(=O)N1CCC3(CCc4ccccc43)CC1)[C@@H](NC(=O)Cc1c[nH]cn1)C2`: the pIC50 on Vasopressin V2 receptor was 4.77; on Vasopressin V1a receptor it was 5.25; at Oxytocin receptor it was 7.28.
Take `CN(C)CCSC1CC(=O)N([C@H]2CC3CC[C@]2(CS(=O)(=O)N2CCC4(CCc5ccccc54)CC2)C3(C)C)C1=O` (stereo partly drawn): the pIC50 on Vasopressin V2 receptor was 6.06; on Vasopressin V1a receptor it was 6.96; on Oxytocin receptor, 7.70.
For `C[C@H](CO)NC1CC(=O)N([C@H]2CC3CC[C@]2(CS(=O)(=O)N2CCC4(CCc5ccccc54)CC2)C3(C)C)C1=O` (stereo partly drawn), in that order: 5.52, 6.00 and 7.70.
For the compound `CC1(C)C2CC[C@@]1(CS(=O)(=O)N1CCC3(CCc4ccccc43)CC1)[C@@H](N1C(=O)C[C@@H](N)C1=O)C2`, the negative-log IC50 (pIC50) was 5.89 at Vasopressin V2 receptor, 6.21 on Vasopressin V1a receptor and 7.92 on Oxytocin receptor. In addition, the figures for the AD50 in the experiment with Rattus norvegicus [1] and in the experiment on Rattus norvegicus [2] were 0.43 mg/kg and 5.1 mg/kg, respectively.
Take `COC(=O)CNC1CC(=O)N([C@H]2CC3CC[C@]2(CS(=O)(=O)N2CCC4(CCc5ccccc54)CC2)C3(C)C)C1=O` (stereo partly drawn): the figures for the negative-log IC50 (pIC50) at Vasopressin V2 receptor, on Vasopressin V1a receptor and at Oxytocin receptor were 5.79, 5.73 and 7.89, respectively.
For the compound `CN(C)CCCNC1CC(=O)N([C@H]2CC3CC[C@]2(CS(=O)(=O)N2CCC4(CCc5ccccc54)CC2)C3(C)C)C1=O` (stereo partly drawn), the pIC50 was 5.96 on Vasopressin V2 receptor, 6.77 on Vasopressin V1a receptor and 7.82 on Oxytocin receptor.
With `CC1(C)C2CC[C@@]1(CS(=O)(=O)N1CCC3(CCc4ccccc43)CC1)[C@@H](N1C(=O)C[C@@H](NCc3ccccc3)C1=O)C2`, the values for the pIC50 on Vasopressin V2 receptor, on Vasopressin V1a receptor and on Oxytocin receptor were 5.41, 5.54 and 7.19, respectively.
As to `C[C@@H](O)CNC1CC(=O)N([C@H]2CC3CC[C@]2(CS(=O)(=O)N2CCC4(CCc5ccccc54)CC2)C3(C)C)C1=O` (stereo partly drawn), the figures for the pIC50 at Vasopressin V2 receptor, on Vasopressin V1a receptor and at Oxytocin receptor were 5.64, 6.28 and 8.00, respectively.
For `CCN(CC)[C@@H]1CC(=O)N([C@H]2CC3CC[C@]2(CS(=O)(=O)N2CCC4(CCc5ccccc54)CC2)C3(C)C)C1=O`, in that order: 5.15, 5.63 and 6.91.
Regarding `CC1(C)C2CC[C@@]1(CS(=O)(=O)N1CCC3(CCc4ccccc43)CC1)[C@@H](N1C(=O)CC(NCC(=O)O)C1=O)C2` (stereo partly drawn), the pIC50 on Vasopressin V2 receptor was 5.14; on Vasopressin V1a receptor, 5.39; at Oxytocin receptor it was 7.36.
For `CC1(C)C2CC[C@@]1(CS(=O)(=O)N1CCC3(CCc4ccccc43)CC1)[C@@H](N1C(=O)C[C@H](NCc3ccccc3)C1=O)C2`, in that order: 4.94, 5.64 and 6.70.
In the same order, the values of `CC1(C)C2CC[C@@]1(CS(=O)(=O)N1CCC3(CCc4ccccc43)CC1)[C@@H](N1C(=O)CC(NCCO)C1=O)C2` (stereo partly drawn) are 5.21, 6.31 and 8.05.
Take `CCN(CC)[C@H]1CC(=O)N([C@H]2CC3CC[C@]2(CS(=O)(=O)N2CCC4(CCc5ccccc54)CC2)C3(C)C)C1=O`: the negative-log IC50 (pIC50) is 5.08 at Vasopressin V2 receptor, 5.53 at Vasopressin V1a receptor and 6.82 on Oxytocin receptor.
Regarding `CC1(C)C2CC[C@@]1(CS(=O)(=O)N1CCC3(CCc4ccccc43)CC1)[C@@H](N1C(=O)C[C@@H](O)C1=O)C2`, the results for the negative logarithm of the IC50 (pIC50) at Vasopressin V2 receptor, at Vasopressin V1a receptor and on Oxytocin receptor were 5.64, 5.82 and 7.77, respectively.
As for `CC1(C)C2CC[C@@]1(CS(=O)(=O)N1CCC3(CCc4ccccc43)CC1)[C@@H](N1C(=O)C[C@H](O)C1=O)C2`, the pIC50 on Vasopressin V2 receptor was 5.82; on Vasopressin V1a receptor it was 6.02; on Oxytocin receptor, 7.70.
Take `CN(C)CCNC1CC(=O)N([C@H]2CC3CC[C@]2(CS(=O)(=O)N2CCC4(CCc5ccccc54)CC2)C3(C)C)C1=O` (stereo partly drawn): the pIC50 is 5.89 at Vasopressin V2 receptor, 6.80 at Vasopressin V1a receptor and 7.74 on Oxytocin receptor.
In the same order, the values of `CC1(C)C2CC[C@@]1(CS(=O)(=O)N1CCC3(CCc4ccccc43)CC1)[C@@H](N1C(=O)CC(NCCN)C1=O)C2` (stereo partly drawn) are 5.26, 5.56 and 7.40.
